Calls of active or inactive are those of the source. The calls are words filed in the database; no cut-off is given here.

Assay [1] has as its system HCT-116. The experiment in a line: Cytotoxicity against human HCT116 cells assessed as reduction in cell viability incubated for 72 hrs by SRB assay. In kind it is functional, cell-based. To be noted: HCT-116, 72 h.
The subject of assay [2] is HeLa. The assay is described as follows: Cytotoxicity against human HeLa cells assessed as reduction in cell viability incubated for 72 hrs by SRB assay. In kind it is functional, cell-based.
Assay [3] in a line: Cytotoxicity against human SGC7901 cells assessed as reduction in cell viability incubated for 72 hrs by SRB assay. The assay is classed as functional, cell-based. Particulars: SGC-7901, 72 h.
Assay [4] deals with HeLa. The experiment in a line: Induction of apoptosis in human HeLa cells assessed as increase in cleaved caspase-3 levels at 3 uM incubated for 48 hrs by Western blotting method. In kind it is functional, cell-based.
Assay [5] is described as follows: Thiol reactivity in DMSO-d6 solution at 0.05 mmol in presence of beta-mercaptoethanol by 1H NMR Michael acceptor assay.
Assay [6] in a line: Thiol reactivity in DMSO-d6 solution assessed as formation of 1,6-O,O-diacetyl-13-(2-hydroxyethylthiol) britannilactone at 0.05 mmol in presence of beta-mercaptoethanol by 1H NMR Michael acceptor assay.
Assay [7] is described as follows: Thiol reactivity in DMSO-d6 solution assessed as formation of 1-O-acetyl-6-O-benzoyl-13-(2-hydroxyethylthiol) britannilactone at 0.05 mmol in presence of beta-mercaptoethanol by 1H NMR Michael acceptor assay.
The subject of assay [8] is HeLa. The experiment in a line: Induction of apoptosis in human HeLa cells assessed as early apoptotic cells levels at 10 uM incubated for 72 hrs by annexin V-FITC and propidium iodide staining based flow cytometry (reference value: 1.4%). In kind it is functional.
For assay [9], the system named is HeLa. The assay is described as follows: Induction of apoptosis in human HeLa cells assessed as late apoptotic cells levels at 10 uM incubated for 72 hrs by annexin V-FITC and propidium iodide staining based flow cytometry (reference value: 2.8%). The assay is classed as functional.
The test system of assay [10] is HeLa. The assay is described as follows: Induction of apoptosis in human HeLa cells assessed as necrotic cells levels at 10 uM incubated for 72 hrs by annexin V-FITC and propidium iodide staining based flow cytometry (reference value: 0.2%). In kind it is functional.

Turning to `C=C1C(=O)O[C@@H]2CC(C)=C([C@@H](C)CCCOC(C)=O)[C@@H](OC(=O)CN3CCCC3)[C@H]12`, the values for the IC50 in assay [1], in [2] and in assay [3] were 20.5 µM, 12.7 µM and 18.4 µM, respectively.
For `C=C1C(=O)O[C@@H]2CC(C)=C([C@@H](C)CCCOC(C)=O)[C@@H](OC(=O)COc3cccc4[nH]nnc34)[C@H]12` the same measures were 23.7 µM, 23 µM and 21.1 µM.
For `CC(=O)OCCC[C@H](C)C1=C(C)C[C@H]2OC(=O)C(CSCCO)[C@H]2[C@@H]1OC(=O)c1ccccc1` (some centres not stated), the IC50 in assay [1], in [2] and in assay [3] was over 100 µM in each case.
With `C=C1C(=O)O[C@@H]2CC(C)=C([C@@H](C)CCCOC(C)=O)[C@@H](OC(=O)c3ccc(C)cc3)[C@H]12`, in assay [2], the IC50 was 5.46 µM.
On to `C=C1C(=O)O[C@@H]2CC(C)=C([C@@H](C)CCCOC(C)=O)[C@@H](OC(=O)c3cccc(F)c3)[C@H]12`, for which the IC50 was determined as 14.5 µM in assay [1], 11.8 µM in assay [2] and 12.9 µM in assay [3].
The like results for `C=C1C(=O)O[C@@H]2CC(C)=C([C@@H](C)CCCOC(C)=O)[C@@H](OC(=O)c3ccc(F)cc3)[C@H]12` were, in that order, 14.9 µM, 12 µM and 13.6 µM.
As for `C=C1C(=O)O[C@@H]2CC(C)=C([C@@H](C)CCCOC(C)=O)[C@@H](OC(=O)c3ccc([N+](=O)[O-])cc3)[C@H]12`, the IC50 in [2] came to 11.3 µM.
For the compound `C=C1C(=O)O[C@@H]2CC(C)=C([C@@H](C)CCCOC(C)=O)[C@@H](OC(=O)CN3CCCCC3)[C@H]12`, the values for the half-maximal inhibitory concentration (IC50) in assay [1], in [2] and in [3] were 13.9 µM, 10.3 µM and 11.5 µM, respectively.
Regarding `C=C1C(=O)O[C@@H]2CC(C)=C([C@@H](C)CCCOC(C)=O)[C@@H](OC(=O)c3ccc(OC)cc3)[C@H]12`, the IC50 in assay [2] worked out at 8.85 µM.
As for `C=C1C(=O)O[C@@H]2CC(C)=C([C@@H](C)CCCOC(C)=O)[C@@H](OC(=O)COc3ccc(C(C)=O)cc3)[C@H]12`, the IC50 amounted to 40.1 µM in assay [1], 43.9 µM in assay [2] and 49.6 µM in assay [3].
As for `C=C1C(=O)O[C@@H]2CC(C)=C([C@@H](C)CCCOC(C)=O)[C@@H](OC(=O)CCl)[C@H]12`, the IC50 in [1] amounted to 18.8 µM; in [2], 28.5 µM; in assay [3] it was 26.5 µM.
`COc1cc([C@@H]2c3cc4c(cc3[C@@H](O[C@@H]3O[C@@H]5CO[C@@H](C)O[C@H]5[C@H](O)[C@H]3O)[C@H]3COC(=O)[C@H]23)OCO4)cc(OC)c1O` [ETOPOSIDE]: the outcome in assay [4] was Active. Further, the figures for the IC50 in [1], in [2] and in assay [3] were 2.13 µM, 2.97 µM and 6.56 µM, respectively.
As for `C=C1C(=O)O[C@@H]2CC(C)=C([C@@H](C)CCCOC(C)=O)[C@@H](OC(=O)COc3cccc4cccnc34)[C@H]12`, the half-maximal inhibitory concentration (IC50) in assay [1] worked out at 12.1 µM; in assay [2], 8.94 µM; in [3], 14.3 µM.
In the case of `O=c1[nH]cc(F)c(=O)[nH]1` [FLUOROURACIL], the IC50 in [1] amounted to 4.9 µM; in [2], 4.71 µM; in assay [3], 0.86 µM.
Consider `C=C1C(=O)O[C@@H]2CC(C)=C([C@@H](C)CCCOC(C)=O)[C@@H](OC(=O)COc3ccc(C(=O)OCCC)cc3)[C@H]12`, for which the IC50 in assay [1] is 37.5 µM; in assay [2], 22.9 µM; in [3], 27.7 µM.
For `C=C1C(=O)O[C@@H]2CC(C)=C([C@@H](C)CCCOC(C)=O)[C@@H](O)[C@H]12` the same measures were 36.1 µM, 32.6 µM and 47.8 µM.
Consider `CC(=O)OCCC[C@H](C)C1=C(C)C[C@H]2OC(=O)C(CSCCO)[C@H]2[C@@H]1OC(C)=O` (some centres not stated), for which the IC50 in assay [1], in assay [2] and in assay [3] was over 100 µM throughout.
As to `C=C1C(=O)O[C@@H]2CC(C)=C([C@@H](C)CCCOC(C)=O)[C@@H](OC(C)=O)[C@H]12`, the result in [5], in assay [6] and in [7] was Active. Further, the Activity in assay [8] amounted to 6.9%; in [9], 24.4%; in assay [10], 11%. Also, the results for the half-inhibitory concentration (IC50) in [1], in assay [2] and in assay [3] were 10.1 µM, 11.2 µM and 15.9 µM, respectively.
As for `C=C1C(=O)O[C@@H]2CC(C)=C([C@@H](C)CCCOC(C)=O)[C@@H](OC(=O)c3ccccc3F)[C@H]12`, the IC50 in assay [1] came to 21.1 µM; in [2] it was 17 µM; in assay [3], 19.3 µM.
As to `C=C1C(=O)O[C@@H]2CC(C)=C([C@@H](C)CCCOC(C)=O)[C@@H](OC(=O)CN(CC)CC)[C@H]12`, the IC50 in [1] was 13.1 µM; in assay [2] it was 10.7 µM; in assay [3], 11.6 µM.
With `C=C1C(=O)O[C@@H]2CC(C)=C([C@@H](C)CCCOC(C)=O)[C@@H](OC(=O)CN3CCOCC3)[C@H]12`, the IC50 amounted to 16.3 µM in [1], 13.9 µM in assay [2] and 14.1 µM in [3].
The like results for `C=C1C(=O)O[C@@H]2CC(C)=C([C@@H](C)CCCOC(C)=O)[C@@H](OC(=O)COc3ccc4c(C(F)(F)F)noc4c3)[C@H]12` were, in that order, 21.5 µM, 19.2 µM and 19.7 µM.
On to `C=C1C(=O)O[C@@H]2CC(C)=C([C@@H](C)CCCOC(C)=O)[C@@H](OC(=O)COc3ccc4c(CC)noc4c3)[C@H]12`, for which the figures for the IC50 in [1], in assay [2] and in assay [3] were 18.3 µM, 21.7 µM and 21.2 µM, respectively.
Turning to `C=C1C(=O)O[C@@H]2CC(C)=C([C@@H](C)CCCOC(C)=O)[C@@H](OC(=O)c3cc(OC)c(OC)c(OC)c3)[C@H]12`, in assay [2], the concentration for half-maximal inhibition (IC50) amounted to 6.54 µM.
Turning to `C=C1C(=O)O[C@@H]2CC(C)=C([C@@H](C)CCCOC(C)=O)[C@@H](OC(=O)COc3cccc(C(C)=O)c3)[C@H]12`, the values for the IC50 in assay [1], in assay [2] and in assay [3] were 45.5 µM, 38.6 µM and 46.1 µM, respectively.
Take `C=C1C(=O)O[C@@H]2CC(C)=C([C@@H](C)CCCOC(C)=O)[C@@H](OC(=O)COc3ccc([N+](=O)[O-])cc3[N+](=O)[O-])[C@H]12`: the IC50 in assay [1], in assay [2] and in assay [3] was over 100 µM throughout.

These data come from ChEMBL document CHEMBL3596152, “Synthesis of 1-O-acetylbritannilactone analogues from Inula britannica and in vitro evaluation of their anticancer potential” (Medchemcomm, 2014).
